System: OvCa13329 ovarian cancer PDX model
Test: KcAng(1-7) on growth of ovarian carcinoma PDX OvCa13329 in mice
Format: in vivo, NMRI nu/nu mice (human PDX)
Conditions: for optT/C: day 11 of the treatment
Description: In vivo studies were conducted at EPO GmbH Berlin. Large studies (FIG. 1A, 2, 3, 4, 5) comprised 3 groups of 10 mice/group and 5 animals as reserve, as outlined in Table 1. Smaller studies (FIG. 1B, 1C, 1D) comprised 2 groups of mice of 3 mice per group. The animals were allocated to the various treatment groups (e.g. 0.2 μg/kg and 30 μg/kg) with a maximum of 10 animals per group. […] The groups received subcutaneous (s.c.) drug injection (for max. 28 days) as outlined in the Table 1.
NMRI nu/nu mice were used in this study. The animals were female at age of 6 to 8 weeks. The respective PDX tumors were inoculated subcutaneously (s.c.), and the tumors were grown to achieve palpable tumor sizes before start of the respective treatments. The PDX included breast (MaCa4151), colon (Co9689A), head & neck (HN10309), lung (Lu7433) and ovarian (OvCa13329) cancer (Table 2).
Treatment with KcAng(1-7) was started with palpable tumors after the randomization of animals regarding tumor volume. KcAng(1-7) was applied s.c. by daily injections at […] or 30 μg/kg dose for a maximum of 28 days (or earlier as defined by the humane end point for the study).
KcAng(1-7) was prepared as follows: The compounds was suspended in sterile PBS resulting in a clear solution. The remains of this formulation were stored at 4° C.
Tumor growth stimulatory or inhibitory activity of the KcAng(1-7) was evaluated by determination of tumor volumes (TV). During the study, tumor volumes and body weight were measured twice a week, and the ratio of the mean tumor volumes between the compound-treated group and the vehicle-treated group (T/C) was calculated.
Tumor volume=(tumor width)×(tumor width)×(tumor length)+2
T/C=T÷C • T: Mean estimated tumor volume of the compound-treated group • C: Mean estimated tumor volume of the vehicle-treated group

[1] = Gr. B 0.2 μg/kg/d s.c., Day 7 (Meas. 1)
[2] = Gr. B 0.2 μg/kg/d s.c., Day 11 (Meas. 2)
[3] = Gr. B 0.2 μg/kg/d s.c., Day 14 (Meas. 3)
[4] = Gr. B 0.2 μg/kg/d s.c., Day 18 (Meas. 4)
[5] = Gr. B 0.2 μg/kg/d s.c., Day 21 (Meas. 5)
[6] = Gr. C 30 μg/kg/d s.c., Day 7 (Meas. 1)
[7] = Gr. C 30 μg/kg/d s.c., Day 11 (Meas. 2)
[8] = Gr. C 30 μg/kg/d s.c., Day 14 (Meas. 3)
[9] = Gr. C 30 μg/kg/d s.c., Day 18 (Meas. 4)
[10] = Gr. C 30 μg/kg/d s.c., Day 21 (Meas. 5)

Substance: Lys-Asp-Arg-Val-Abu/Ala-Ile-His-Abu/Ala (KDRVAIHA; not fully specified; cyclic thioether (Abu/Ala bridge); VARIANT (5)..(5) /replace=“Abu”; VARIANT (8)..(8) /replace=“Abu”; SITE (1)..(8) /note=“Variant residues given in the sequence have no preference with respect to those in the annotations for variant positions”) [KcAng(1-7)]
- optT/C (0.2 μg/kg): 55.8%
- optT/C (30 μg/kg): 51%
- effect on tumor volume (0.2 and 30 μg/kg, 15 days): significant reduction in tumor volume
- RTV Mean [1]: 1
- RTV Median [1]: 1
- T/C [1]: 102.4%
- Tumor Vol. Mean [1]: 0.122 cm^3
- Tumor Vol. Median [1]: 0.123 cm^3
- RTV Mean [2]: 1.6
- RTV Median [2]: 1.5
- T/C [2]: 55.8%
- Tumor Vol. Mean [2]: 0.192 cm^3
- Tumor Vol. Median [2]: 0.181 cm^3
- RTV Mean [3]: 3.1
- RTV Median [3]: 3
- T/C [3]: 68.5%
- Tumor Vol. Mean [3]: 0.384 cm^3
- Tumor Vol. Median [3]: 0.337 cm^3
- RTV Mean [4]: 8.5
- RTV Median [4]: 8
- T/C [4]: 73.9%
- Tumor Vol. Mean [4]: 0.985 cm^3
- Tumor Vol. Median [4]: 1.015 cm^3
- RTV Mean [5]: 13.4
- RTV Median [5]: 11.9
- T/C [5]: 79.3%
- Tumor Vol. Mean [5]: 1.547 cm^3
- Tumor Vol. Median [5]: 1.398 cm^3
- RTV Mean [6]: 1
- RTV Median [6]: 1
- T/C [6]: 97%
- Tumor Vol. Mean [6]: 0.116 cm^3
- Tumor Vol. Median [6]: 0.115 cm^3
- RTV Mean [7]: 1.6
- RTV Median [7]: 1.6
- T/C [7]: 51.1%
- Tumor Vol. Mean [7]: 0.176 cm^3
- Tumor Vol. Median [7]: 0.182 cm^3
- RTV Mean [8]: 2.6
- RTV Median [8]: 2.7
- T/C [8]: 54.9%
- Tumor Vol. Mean [8]: 0.308 cm^3
- Tumor Vol. Median [8]: 0.33 cm^3
- RTV Mean [9]: 8.4
- RTV Median [9]: 8.4
- T/C [9]: 72.2%
- Tumor Vol. Mean [9]: 0.962 cm^3
- Tumor Vol. Median [9]: 0.995 cm^3
- RTV Mean [10]: 12.6
- RTV Median [10]: 13
- T/C [10]: 73.9%
- Tumor Vol. Mean [10]: 1.442 cm^3
- Tumor Vol. Median [10]: 1.503 cm^3
